US20050043319A1, “Molecular target of neurotoxicity” (EXONHIT THERAPEUTICS SA, priority 2001, published 2005)
Like-named read-outs stand apart in the source and are kept apart here.

Assays:
[1] = tested on: Amyotrophic Lateral Sclerosis (ALS); details: ALS patients; cited from earlier work
cortical neurons = assay: Excitotoxicity protection in primary cortical cell cultures (MTT test); assay type: cell-based, rat; details: 6 hour incubation
Protocol: Sixteen-day-old embryos from Wistar rats were removed and the cortex dissected. […] After four days of culture, half of the medium was replaced by minimum essential medium supplemented with 5% horse serum and 2 mM glutamine. On the same day, 10 μM 5-fluoro-2-deoxyuridine, an antimitotic agent, was added. After 7 and 11 days of culture, half of the medium was replaced by conditioned medium composed of MEM supplemented with 5% horse serum and 2 mM glutamine; this medium was passed overnight on a layer of cortical astrocytes before use.
Toxicity was measured with an MTT test.

rat brain granular cells = details: for protection of brain granular cells: 6 hour incubation, MTT; for protective effect on neuron survival: neurons cotreated with PDE4 inhibitor, both excitotoxicity inducers (NMDA/serine and kainate), FIGS. 2 to 10
[2] = NMDA/serine treatment (20 μM NMDA + 10 μM D-serine)
[3] = kainate-induced toxicity (50 μM kainate)
[4] = NMDA/serine treatment (100 μM NMDA + 10 μM D-serine)

Row | SMILES | improvement in the measures of muscular strength [1] | protective effect on cortical neurons (cortical neurons; [2]) [%] | protective effect on cortical neurons (cortical neurons; [3]) [%] | protection of brain granular cells (rat brain granular cells; [4]) [%] | protection of brain granular cells (rat brain granular cells; [3]) [%] | protective effect on neuron survival (rat brain granular cells)
1 | Nc1nc2ccc(OC(F)(F)F)cc2s1 [Riluzole] | does not provide improvement | – | – | – | – | –
2 | CC(=O)CCCCn1c(=O)c2c(ncn2C)n(C)c1=O [pentoxifylline] | – | 50 | 66 | 43 | 33 | dose-dependent protective effect
3 | CCOC(=O)c1cnc2c(cnn2CC)c1NN=C(C)C [etazolate] | – | 33 | 25 | 60 | 57 | dose-dependent protective effect
